This is an account of results in patent US20050107289A1, “Anti-microbial peptides and compositions” (priority 2001, published 2005).

Non-standard residues stand in square brackets, D forms with d. Residues, ends and D or L forms follow the SMILES beside them. Some results are limits rather than exact numbers.

In data set [1] the test system is S. aureus (MRSA) ATCC 33591. The format is cell-based, Staphylococcus aureus. The following applies: for In Vitro MRSA MIC / S. aureus (MRSA) MIC / MRSA MIC: ATCC 33591; for MRSA (in vitro activity): Table 9, media a: anti-microbial media-3 (AM-3). A digest of the protocol: (§1)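 Broth macro- or microdilution MIC per NCCLS M7-A4. Peptides were serially 2-fold diluted in 5% DMSO/9% aqueous sucrose, about 400–2 μg/ml (dilution-series concentrations). Overnight cultures were diluted 4000-fold to an inoculum of about 2.5×10^5 cfu/ml.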

Data set [2] relates to S. aureus MRSA (ATCC 33591). Description: Mouse peritonitis model, MRSA protection. The following applies: for PD50 MRSA: Table 12, male Balb-C mice, IP infection, IP peptide; for In Vivo MRSA PD50: Table 13; for protection of mice from MRSA infection: single bolus IP dose of appropriate amount, 45-60 min after infection; for mice survived: fourteen-day study. Details: PD50 MRSA: unit not given here. The format is in vivo, mice. The procedure:
Bacteria were prepared for in vivo using procedures similar to those as previously described. […] S. aureus MRSA bacteria (ATCC 33591) were grown at 37° C. in 5 mL of Antibiotic Medium-3 (AM-3, Difco Laboratories) with agitation for 12 hours to a stationary phase. Cells were collected by centrifugation, washed twice with saline solution and resuspended in about 10 mL of saline to an O.D.650 of 1.2. This suspension was diluted ten times in a sterilized 5% mucin (Difco) in saline to a concentration of 2-4×10^7 cfu/ml (actual inoculum size was verified by colony counts on agar plates).
Peptides of the invention were tested in mice to ascertain whether they would protect the mice against bacterial infection using procedures similar to those described in N. Frimodt-Moller et al., The Mouse Peritonitis/Sepsis Model, in Zak et al. (eds.) HANDBOOK OF ANIMAL MODELS OF INFECTION 127-37 (Academic Press 1999).
Male Balb-C mice (6 weeks old, approximately 20 g) were used in the study. Staphylococcus aureus MRSA bacteria (ATCC 33591) were grown at 37° C. with agitation for 12 hours to a stationary phase. Cells were collected by centrifugation, washed twice with saline and resuspended to an O.D.650 of 1.4. This suspension was diluted ten times with saline and resuspended to a concentration of 3-5×10^7 cfu/ml. For each peptide five groups of eight mice per group were infected I.P. with 0.5 ml of the above Staphylococcus aureus MRSA preparation (lethal dose). Forty-five minutes to an hour after infection, each group was treated with a different dose of peptide and a control group received vehicle only. Mice were monitored for fourteen days; death was defined as the end point. Median protecting doses (PD50) were calculated following the Reed and Muench method. […] For IV and SQ models peptide was administered immediately after IP infection.

Data set [3] deals with vancomycin-resistant Enterococus faecalis (VRE)(ATCC 51575). The format is cell-based, Enterococcus faecalis. Details: key to VRE (in vitro activity): peptide concentration in μg/ml (broth dilution assay). The following applies: for In Vitro VREF MIC / VRE MIC: ATCC 51575; for VRE (in vitro activity): Table 9, media a: AM-3. A digest of the protocol:
as §1

Data set [4] can be described thus: Toxicity studies in mice. The format is in vivo. Details: LD50(IP) / LD50(IV): unit not given here. The following applies: for LD50(IP) / LD50(IV): Table 12, male Balb-C mice; for LD50 at 14 days: male, Balb-C, mouse, in vivo, ip, Table 13. On the procedure: Peptides were tested for toxicity in vivo using procedures similar to those described previously. […] Mice (male Balb-C) in groups of 4-8 were given via IV, IP or SQ single bolucdoses of peptides and monitored for 14 days. Toxicity of sublethal doses was assessed based on the behavior and appearance of the mice after peptide administration compared to control mice receiving only vehicle. Signs of acute toxicity included lack of activity, red feet and tail, faster breathing. Death was defined as the end point for lethal doses of peptides.
Toxicology Studies: Initial toxicology studies in mice were conducted to evaluate various routes of drug administration, maximum tolerable dose, and blood and tissue toxicity. Two mice in each dose study were injected with a bolus intravenous (IV), intraperitoneal (IP), or subcutaneous (SQ) doses of peptide SEQ ID NO:8, 18, and 26. For each study, two control animals received vehicle only and no peptide. […] Signs of acute toxicity included any one of the following: lack of activity, red feet and tail, or faster breathing. […] A regimen of […] of peptide SEQ ID NO:18 for three consecutive days was administered to two mice IP and two mice SQ.

The test system of data set [5] is E. coli JM109(DE3). The format is cell-based, Escherichia coli. The following applies: JM109. A digest of the protocol:
as §1

For orientation: LD50 means the dose at which mortality reaches 50%. As for `CC(C)C[C@H]1NC(=O)[C@H](Cc2c[nH]c3ccccc23)NC(=O)[C@@H](CCCNC(=N)N)NC(=O)[C@H](CCC(N)=O)NC(=O)[C@@H](CCCCN)NC(=O)[C@H](Cc2c[nH]c3ccccc23)NC(=O)[C@@H](CC(C)C)NC(=O)[C@H](Cc2c[nH]c3ccccc23)NC1=O` [SEQ ID NO:8, cyclo-(D-Lys-Gln-D-Arg-Trp-D-Leu-Trp-D-Leu-Trp)] (cyclo([dK]Q[dR]W[dL]W[dL]W)), in data set [1], the “In Vitro MRSA MIC” value came to 12 µg/mL and the “S. aureus (MRSA) MIC” value came to 6 µg/mL. For the same molecule, in data set [2], the “PD50 S. aureus MRSA infection” value stood at 7 mg/kg, the “PD50 MRSA” value is recorded as 7, the “In Vivo MRSA PD50” value turned out to be 7 mg/kg and the “protection of mice from MRSA infection” value is reported as “completely protect”. In addition, the “In Vitro VREF MIC” value in data set [3] turned out to be 12 µg/mL. Moreover, in data set [4], the “LD50(IP)” value came out at 55, the “LD50(IV)” value is reported as >12 and the LD50 at 14 days is 55 mg/kg. Also, the signs of toxicity result in data set [4] (mice, IP, maximum tested dose 12 mg/kg) is “no signs of toxicity were observed”. Also, in data set [4] (mice, bolus IV 12 mg/kg), the signs of toxicity entry is reported as “signs of temporary (<10 min in duration) discomfort”. Moreover, in data set [5], the “E. coli MIC” value was 80 µg/mL.

As for `CC(C)C[C@H]1NC(=O)[C@H](Cc2c[nH]c3ccccc23)NC(=O)[C@@H](CCCCN)NC(=O)[C@H](CO)NC(=O)[C@@H](CCCCN)NC(=O)[C@H](Cc2c[nH]c3ccccc23)NC(=O)[C@@H](CC(C)C)NC(=O)[C@H](Cc2c[nH]c3ccccc23)NC1=O` [SEQ ID NO:12, D-Lys-Ser-D-Lys-Trp-D-Leu-Trp-D-Leu-Trp] (cyclo([dK]S[dK]W[dL]W[dL]W)), in data set [1], the “In Vitro MRSA MIC” value amounted to 5 µg/mL, the MRSA MIC is 5 µg/mL, the “S. aureus (MRSA) MIC” value was determined as 5 µg/mL and the “MRSA (in vitro activity)” value came to 5. In data set [2], the “PD50 S. aureus MRSA infection” value is listed as 20 mg/kg, the “PD50 MRSA” value came out at 20, the “In Vivo MRSA PD50” value is listed as 20 mg/kg and the “protection of mice from MRSA infection” value is reported as “completely protect”. Moreover, in data set [3], the “In Vitro VREF MIC” value is 15 µg/mL, the VRE MIC amounted to 15 µg/mL and the “VRE (in vitro activity)” value worked out at 15. In addition, in data set [4], the “LD50(IP)” value is >400, the “LD50(IV)” value came to 70 and the LD50 at 14 days is > 400 mg/kg. In addition, the “E. coli MIC” value in data set [5] was found to be 40 µg/mL.

With `CC(C)C[C@H]1NC(=O)[C@H](Cc2c[nH]c3ccccc23)NC(=O)[C@@H](CCCCN)NC(=O)[C@H](CCCNC(=N)N)NC(=O)[C@@H](CCCNC(=N)N)NC(=O)[C@H](Cc2c[nH]c3ccccc23)NC(=O)[C@@H](CC(C)C)NC(=O)[C@H](Cc2c[nH]c3ccccc23)NC1=O` [SEQ ID NO:18, cyclo-(D-Arg-Arg-D-Lys-Trp-D-Leu-Trp-D-Leu-Trp)] (cyclo([dR]R[dK]W[dL]W[dL]W)), in data set [1], the “In Vitro MRSA MIC” value came out at 6 µg/mL, the MRSA MIC was 5 µg/mL, the “S. aureus (MRSA) MIC” value came to 6 µg/mL and the “MRSA (in vitro activity)” value was 5. In data set [2], the “PD50 S. aureus MRSA infection” value is recorded as 8 mg/kg, the “PD50 MRSA” value was 8, the “In Vivo MRSA PD50” value came to 8 mg/kg and the “protection of mice from MRSA infection” value is listed as “completely protect”. In addition, the mice survived in data set [2] (40 mg/kg bolus SQ) turned out to be 75%. The mice survived in data set [2] (2.5×5 mg/kg IV dosage regimen) is 50%. In addition, the “PD50 protective dose where 50% of animals survive” value in data set [2] (FIG. 6, mice challenged with lethal doses of MRSA) was found to be 5 ± 2 mg/kg. Also, in data set [3], the “In Vitro VREF MIC” value turned out to be 5 µg/mL, the VRE MIC stood at 5 µg/mL and the “VRE (in vitro activity)” value is given as 5. Also, in data set [4], the “LD50(IP)” value is recorded as 60, the “LD50(IV)” value is 16 and the LD50 at 14 days is 60 mg/kg. In addition, the “physical, social and feeding activities” value in data set [4] (mice, 17.5 mg per day, three consecutive days, IP or SQ, over four days) was “no apparent changes in the physical, social, and feeding activities”. Besides, the “sites of IP and SQ injections” value in data set [4] (mice, 17.5 mg per day, three days) was “moderate subacute inflammation”. For the same molecule, the “hematology, necropsy and microscopic examination” value in data set [4] (mice, 17.5 mg per day, three days, fourth day) is “normal blood and morphological profiles except for the sites of IP and SQ injections”. In data set [4] (mice, up to 17.5 mg/kg IP and SQ), the signs of toxicity result is “without any apparent signs of toxicity”. In addition, the “E. coli MIC” value in data set [5] was 15 µg/mL.
